Assay results published in ChEMBL document CHEMBL1125793 (J Med Chem, 1991).

Target: T1, Angiotensin II receptor (Rattus norvegicus, UniProt P29089+P25095+P35351)
T1 sequence (P29089 whole entry): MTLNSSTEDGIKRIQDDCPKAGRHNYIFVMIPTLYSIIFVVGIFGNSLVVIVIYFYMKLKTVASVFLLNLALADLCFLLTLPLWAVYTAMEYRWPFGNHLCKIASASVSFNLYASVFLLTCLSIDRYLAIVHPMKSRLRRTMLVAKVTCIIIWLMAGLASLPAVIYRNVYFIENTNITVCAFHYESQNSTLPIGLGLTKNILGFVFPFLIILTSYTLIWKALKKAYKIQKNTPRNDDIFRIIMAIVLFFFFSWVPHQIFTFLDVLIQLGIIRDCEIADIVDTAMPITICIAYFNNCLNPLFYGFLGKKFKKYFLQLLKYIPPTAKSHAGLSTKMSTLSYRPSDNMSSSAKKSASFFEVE
T1 sequence (P25095 whole entry): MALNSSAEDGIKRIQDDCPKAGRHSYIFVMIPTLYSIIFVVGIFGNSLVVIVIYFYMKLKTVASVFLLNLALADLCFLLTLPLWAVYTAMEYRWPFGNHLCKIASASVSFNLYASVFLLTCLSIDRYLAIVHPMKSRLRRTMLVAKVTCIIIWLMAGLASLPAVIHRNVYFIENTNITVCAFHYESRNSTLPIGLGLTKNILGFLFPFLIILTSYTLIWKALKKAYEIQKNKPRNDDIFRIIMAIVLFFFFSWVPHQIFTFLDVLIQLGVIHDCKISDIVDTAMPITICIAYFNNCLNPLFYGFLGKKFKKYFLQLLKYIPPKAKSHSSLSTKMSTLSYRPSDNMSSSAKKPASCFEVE
T1 sequence (P35351 whole entry): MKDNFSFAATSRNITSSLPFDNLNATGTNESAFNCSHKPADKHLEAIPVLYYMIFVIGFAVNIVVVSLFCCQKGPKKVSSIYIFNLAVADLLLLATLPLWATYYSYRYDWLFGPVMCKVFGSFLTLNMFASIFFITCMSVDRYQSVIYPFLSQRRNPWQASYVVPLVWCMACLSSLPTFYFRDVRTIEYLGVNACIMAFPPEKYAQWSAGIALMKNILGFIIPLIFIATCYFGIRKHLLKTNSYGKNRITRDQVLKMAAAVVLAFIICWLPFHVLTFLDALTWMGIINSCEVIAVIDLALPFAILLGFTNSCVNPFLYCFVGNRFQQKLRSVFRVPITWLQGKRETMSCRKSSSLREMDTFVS
Assay: Binding affinity against Angiotensin II receptor, from rat adrenal gland
Format: tissue-based

| IC50 [µM] | Structure (SMILES) |
| --- | --- |
| 1.2 | O=C(O)C1Cc2c(ncn2Cc2ccccc2)CN1C(=O)CC(c1ccccc1)c1ccccc1 (stereo not given) |
| 0.089 | CC(=O)Nc1ccc(Cn2cnc3c2C[C@@H](C(=O)O)N(C(=O)C(c2ccccc2)c2ccccc2)C3)cc1C |
| 0.044 | CNC(=O)Nc1ccc(Cn2cnc3c2C[C@@H](C(=O)O)N(C(=O)C(c2ccccc2)c2ccccc2)C3)cc1C |
| 2.1 | O=C(C(c1ccccc1)c1ccccc1)N1Cc2ncn(Cc3ccccc3)c2CC1CO (stereo not given) |
| 0.097 | Cc1cc(Cn2cnc3c2C[C@H](C(=O)O)N(C(=O)C(c2ccccc2)c2ccccc2)C3)ccc1N(C)C.O |
| 5.1 | COC(=O)C1Cc2c(ncn2Cc2ccc([N+](=O)[O-])c(C)c2)CN1C(=O)C(c1ccccc1)c1ccccc1 (stereo not given) |
| 1.2 | O=C(O)[C@@H]1Cc2c(ncn2Cc2cccc(Cl)c2)CN1C(=O)C(c1ccccc1)c1ccccc1 |
| 0.26 | COc1ccc(Cn2cnc3c2C[C@@H](C(=O)O)N(C(=O)C(c2ccccc2)c2ccccc2)C3)cc1F |
| 0.29 | COc1ccc(Cn2cnc3c2C[C@@H](C(=O)O)N(C(=O)C(c2ccccc2)c2ccccc2)C3)cc1 |
| 0.45 | O=C(O)[C@@H]1Cc2c(ncn2Cc2ccc(F)cc2)CN1C(=O)C(c1ccccc1)c1ccccc1 |
| 0.12 | COc1cccc(Cn2cnc3c2C[C@@H](C(=O)O)N(C(=O)C(c2ccccc2)c2ccccc2)C3)c1 |
| 0.29 | CCN(CC)c1ccc(Cn2cnc3c2C[C@@H](C(=O)O)N(C(=O)C(c2ccccc2)c2ccccc2)C3)cc1 |
| 2.1 | O=C(O)C1Cc2c(ncn2Cc2ccccc2)CN1C(=O)C(c1ccc(F)cc1)c1ccc(F)cc1 (stereo not given) |
| 0.35 | CC(=O)Nc1ccc(Cn2cnc3c2C[C@@H](C(=O)O)N(C(=O)C(c2ccccc2)c2ccccc2)C3)cc1 |
| 0.3 | Cc1ccc(Cn2cnc3c2C[C@@H](C(=O)O)N(C(=O)C(c2ccccc2)c2ccccc2)C3)cc1C |
| 8.8 | COC(=O)C1Cc2c(ncn2Cc2ccccc2)CN1C(=O)C(c1ccccc1)c1ccccc1 (stereo not given) |
| 0.051 | COc1ccc(Cn2cnc3c2C[C@@H](C(=O)O)N(C(=O)C(c2ccccc2)c2ccccc2)C3)cc1[N+](=O)[O-] |
| 0.35 | COC(=O)C1Cc2c(ncn2Cc2ccc(N(C)C)c(C)c2)CN1C(=O)C(c1ccccc1)c1ccccc1 (stereo not given) |
| 0.46 | O=C(O)[C@@H]1Cc2c(ncn2Cc2cccc(C(F)(F)F)c2)CN1C(=O)C(c1ccccc1)c1ccccc1 |
| 0.27 | O=C(O)[C@@H]1Cc2c(ncn2Cc2ccc3ccccc3c2)CN1C(=O)C(c1ccccc1)c1ccccc1 |
| 0.24 | O=C(O)[C@@H]1Cc2c(ncn2CCc2ccccc2)CN1C(=O)C(c1ccccc1)c1ccccc1 |
| 0.72 | COc1ccc(C)cc1Cn1cnc2c1C[C@@H](C(=O)O)N(C(=O)C(c1ccccc1)c1ccccc1)C2 |
| 1 | O=C(O)C1Cc2c(ncn2Cc2ccccc2)CN1C(=O)C(c1ccccc1)c1ccccc1 (stereo in doubt; 18) |
| 0.07 | COc1ccc(Cn2cnc3c2C[C@@H](C(=O)O)N(C(=O)C(c2ccccc2)c2ccccc2)C3)cc1C |
| 0.65 | O=C(O)[C@@H]1Cc2c(ncn2Cc2cccc(Br)c2)CN1C(=O)C(c1ccccc1)c1ccccc1 |

Continued, molecule first:

| Structure (SMILES) | IC50 [µM] |
| --- | --- |
| COc1ccc(Cn2cnc3c2CC(CO)N(C(=O)N(C)c2ccccc2)C3)cc1C (stereo not given) | 0.52 |
| Cc1cc(Cn2cnc3c2CC(CO)N(C(=O)C(c2ccccc2)c2ccccc2)C3)ccc1N(C)C (stereo not given) | 0.2 |
| O=C(O)C1Cc2c(ncn2Cc2ccccc2)CN1C(=O)Nc1ccccc1 (stereo not given) | 2.1 |
| Nc1ccc(C(C(=O)N2Cc3ncn(Cc4ccccc4)c3CC2C(=O)O)c2ccc(N)cc2)cc1 (stereo not given) | 8.4 |
| Cc1ccc(C(C(=O)N2Cc3ncn(Cc4ccccc4)c3CC2C(=O)O)c2ccc(C)cc2)cc1 (stereo not given) | 1.3 |
| COc1ccc(Cn2cnc3c2CCN(C(=O)C(c2ccccc2)c2ccccc2)C3)cc1C | 4.4 |
| O=C(O)C1Cc2c(ncn2Cc2ccccc2)CN1C(=O)Cc1ccccc1 (stereo in doubt; 14a) | 0.74 |
| COc1ccc(C(C(=O)N2Cc3ncn(Cc4ccccc4)c3CC2C(=O)O)c2ccc(OC)cc2)cc1 (stereo not given) | 0.61 |
| COc1ccc(Cn2cnc3c2C[C@@H](C(=O)O)N(C(=O)CC(c2ccccc2)c2ccccc2)C3)cc1C | 4.2 |
| O=C(O)C1Cc2ncn(Cc3ccccc3)c2CN1C(=O)/C=C/c1ccccc1 (stereo not given) | 29 |
| COc1ccc(Cn2cnc3c2C[C@@H](C(=O)O)N(C(=O)C(C)(c2ccccc2)c2ccccc2)C3)cc1C | 9.5 |
| Cc1cc(Cn2cnc3c2CC(CO)N(C(=O)C(c2ccccc2)c2ccccc2)C3)ccc1[N+](=O)[O-] (stereo not given) | 2 |
| CN(Cc1ccccc1)C(=O)N1Cc2ncn(Cc3ccccc3)c2CC1C(=O)O (stereo not given) | 4.1 |
| O=C(O)C1Cc2c(ncn2Cc2ccccc2)CN1C(=O)Oc1ccccc1 (stereo not given) | 4.6 |
| O=C(O)C1Cc2c(ncn2Cc2ccccc2)CN1C(=O)/C=C/c1ccccc1 (stereo not given) | 2.5 |
| Cc1ccc(S(=O)(=O)N2Cc3ncn(Cc4ccccc4)c3CC2C(=O)O)cc1 (stereo not given) | 4.2 |
| COc1ccc(Cn2cnc3c2C[C@@H](C(=O)O)N(C(=O)C2(c4ccccc4)CCCCC2)C3)cc1C | 0.11 |
| COc1ccc(Cn2cnc3c2C[C@@H](C(=O)O)N(C(=O)C(C)c2ccccc2)C3)cc1C (stereo not given in full) | 0.56 |

| Structure (SMILES) | IC50 [µM] |
| --- | --- |
| COc1ccc(Cn2cnc3c2C[C@@H](C(=O)O)N(C(=O)C(c2ccc(Cl)cc2)c2ccc(Cl)cc2)C3)cc1C | 2.4 |
| COc1ccc(Cn2cnc3c2C[C@@H](C(=O)O)N(C(=O)C(c2ccccc2)C2CCCC2)C3)cc1C (stereo not given in full) | 0.067 |
| O=C(O)C1Cc2c(ncn2Cc2ccccc2)CN1S(=O)(=O)Cc1ccccc1 (stereo not given) | 19 |
| CN(C(=O)N1Cc2ncn(Cc3ccccc3)c2CC1C(=O)O)c1ccccc1 (stereo in doubt; 3) | 1.2 |
| COc1ccc(Cn2cnc3c2C[C@@H](C(=O)O)N(C(=O)N(C)c2ccccc2)C3)cc1C | 0.14 |
| O=C(O)C1Cc2c(ncn2Cc2ccccc2)CN1C(=O)OCc1ccccc1 (stereo in doubt; 7) | 14 |
| O=C(O)C1Cc2c(ncn2Cc2ccccc2)CN1C(=O)OCc1ccccc1 (stereo in doubt; 7a) | 4.2 |
| O=C(O)C1Cc2c(ncn2Cc2ccccc2)CN1C(=O)CCc1ccccc1 (stereo not given) | 13 |
| COc1ccc(Cn2cnc3c2C[C@@H](C(=O)O)N(C(=O)/C=C\c2ccccc2)C3)cc1C | 2.2 |
| O=C(O)C1Cc2c(ncn2Cc2ccccc2)CN1C(=O)COc1ccccc1 (stereo not given) | 4 |
| COc1ccc(Cn2cnc3c2C[C@@H](C(=O)O)N(C(=O)C(c2ccc([N+](=O)[O-])cc2)c2ccc([N+](=O)[O-])cc2)C3)cc1C | 13 |
| O=C(O)[C@@H]1Cc2c(ncn2CCC2CCCCC2)CN1C(=O)C(c1ccccc1)c1ccccc1 | 0.24 |
| CN(C(=O)N1Cc2ncn(Cc3ccccc3)c2CC1CO)c1ccccc1 (stereo not given) | 1.6 |
| O=C(C(c1ccccc1)C1CCCC1)N1Cc2ncn(Cc3ccccc3)c2CC1CO (stereo not given) | 6.7 |
| COc1ccc(Cn2cnc3c2C[C@@H](C(=O)O)N(C(=O)CC24CC5CC(CC(C5)C2)C4)C3)cc1C | 28 |
| O=C(O)C1Cc2c(ncn2Cc2ccccc2)CN1C(=O)C(c1ccccc1)C1CCCC1 (stereo not given) | 0.071 |
| COc1ccc(Cn2cnc3c2C[C@@H](C(=O)O)N(C(=O)C(Cc2ccccc2)c2ccccc2)C3)cc1C (stereo not given in full) | 3.5 |
